According to US20070077283A1, “METHOD OF ENHANCING TRANSMUCOSAL DELIVERY OF THERAPEUTIC COMPOUNDS” (Nastech Pharmaceutical Company Inc., priority 2005, published 2007):

What was measured:
[1] = tested on: human-derived tracheal/bronchial epithelial cells (EpiAirway Tissue Model); assay: in vitro
Outline: (§1)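 EpiAirway cultures treated 1 h with each lipid; PBS as negative control. LDH released apically and basolaterally measured colorimetrically at 490 nm after 30 min substrate incubation at room temperature. Cytotoxicity expressed as percent of 1% Triton X-100 lysis control, set to 100%.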

in vitro = assay: in vitro
Outline: as §1

[2] = tested on: human-derived tracheal/bronchial epithelial cells (EpiAirway Tissue Model); assay: Insulin permeation across epithelial cell monolayer; format: cell-based; conditions: for permeation of insulin (in words): 1000 μM in the presence of Buffer I and Buffer II
Experimental: Also, the efficacy of a permeation enhancing lipid to enhance the permeation of insulin across and epithelial cell layer was measured. Refer to Example 2 of the instant application for general protocol details. […] Based on the FD3 permeation data in Table 8, the ability of the C16 PAF and C16 Enantiomeric PAF in the presence of Buffers I and II to enhance permeation of the biological agent insulin was assayed. Each lipid was tested at a 1000 μM concentration.

[3] = tested on: human-derived tracheal/bronchial epithelial cells (EpiAirway Tissue Model); assay: Cell viability (MTT assay); format: cell-based; conditions: for effect on cell viability (MTT assay): compared with control Special Sauce, data not shown (Example 3); for MTT levels (cell viability): compared with PBS negative control (Example 5)
Experimental: (§2) Cell viability will be assessed using the MTT assay (MTT-100, MatTek kit). This kit measures the uptake and transformation of tetrazolium salt to formazan dye. Thawed and diluted MTT concentrate is prepared 1 hour prior to the end of the dosing period with the lipid by mixing 2 mL of MTT concentrate with 8 mL of MTT diluent. Each cell culture insert is washed twice with PBS containing Ca^+2 and Mg^+2 and then transferred to a new 96-well transport plate containing 100 μL of the mixed MTT solution per well. This 96-well transport plate is then incubated for three hours at 37° C. and 5% CO2. After the three hour incubation, the MTT solution is removed and the cultures are transferred to a second 96-well feeder tray containing 250 μL MTT extractant solution per well. An additional 150 μL of MTT extractan solution was added to the surface of each culture well and the samples sat at room temperature in the dark for a minimum of two hours and maximum of 24 hours. The insert membrane was then pierced with a pipet tip and the solutions in the upper and lower wells were allowed to mix. Two hundred microliters of the mixed extracted solution along with extracted blanks (negative control) was transferred to a 96-well plate for measurement with a microplate reader. The optical density (OD) of the samples was measured at 570 nm with the background subtraction at 650 nm on a plate reader. Cell viability was expressed as a percentage and calculated by dividing the OD readings for treated inserts by the OD readings for the PBS treated inserts and multiplying by 100. For the purposes of this assay, it was assumed that PBS had no effect on cell viability and therefore represented 100% cell viability.

[4] = Cell viability (MTT assay); format: cell-based, human; conditions: human; PN159 25 μM / PYY 13.67 mg/mL (High)
Experimental: as §2

[5] = tested on: human-derived tracheal/bronchial epithelial cells (EpiAirway Tissue Model); assay: Peptide YY (PYY) permeation across epithelial cell monolayer; format: cell-based
Experimental: Permeation is expressed as percent permeation and was calculated as follows: [formula] [formula] Terms
In the instant example, the ability of permeation enhancing lipids to enhance the permeation of the biological agent, peptide YY (PYY; molecular weight of 3.7 kDa) across the epithelial cell monolayer model system (EpiAirway™) was measured. Also, the efficacy of a permeation enhancing lipid to enhance the permeation of insulin across and epithelial cell layer was measured. Refer to Example 2 of the instant application for general protocol details.

[6] = in the presence of FITC-Dextran FD3 (Table 6)
[7] = in the presence of FITC-Dextran FD10 (Table 6)
[8] = in the presence of FITC-Dextran FD40 (Table 6)
[9] = in the presence of FITC-Dextran FD70 (Table 6)
[10] = in the presence of FITC-Dextran FD500 (Table 6)
[11] = % Cytotoxicity, lipid 1000 μM in Buffer I, apical LDH release
[12] = % Cytotoxicity, lipid 1000 μM in Buffer II, apical LDH release
[13] = lipid 500 μM / PYY 13.67 mg/mL (High)

CCCCCCCCCCCCCCCCOC[C@@H](COP(=O)([O-])OCC[N+](C)(C)C)OC(C)=O [C16 Enantiomeric PAF, 3-O-Hexadecyl-2-Acetoyl-sn-Glycero-1-Phosphocholine]
% Relative Cytotoxic Effect (LDH) [1, 6]: 34% | % Relative Cytotoxic Effect (LDH) [1, 7]: 32% | % Relative Cytotoxic Effect (LDH) [1, 8]: 36% | % Relative Cytotoxic Effect (LDH) [1, 9]: 31% | % Relative Cytotoxic Effect (LDH) [1, 10]: 33% | Mean % Relative Cytotoxic Effect (LDH) ([1]; lipid 1000 μM (Table 4)): 35% | cytotoxicity at 1 h, 1000 μM (in vitro; [11]): 34% | cytotoxicity at 1 h, 1000 μM (in vitro; [12]): 14% | permeation of insulin (in words) [2]: enhance the permeation of insulin across an epithelial cell monolayer | % Insulin Permeation ([2]; lipid 1000 μM in Buffer I): 3% | % Insulin Permeation ([2]; lipid 1000 μM in Buffer II): 8%

CCCCCCCCCCCCCCCCOC[C@H](COP(=O)([O-])OCC[N+](C)(C)C)OC(C)=O [C16-02:0 PC(C16 PAF), 1-O-Hexadecyl-2-Acetoyl-sn-Glycero-3-Phosphocholine]
effect on cell viability (MTT assay) [3]: did not reduce cell viability below that of Special Sauce | % Relative Cytotoxic Effect (LDH) [1, 6]: 32% | % Relative Cytotoxic Effect (LDH) [1, 7]: 35% | % Relative Cytotoxic Effect (LDH) [1, 8]: 31% | % Relative Cytotoxic Effect (LDH) [1, 9]: 35% | % Relative Cytotoxic Effect (LDH) [1, 10]: 26% | Mean % Relative Cytotoxic Effect (LDH) ([1]; lipid 500 μM (Table 4)): 20% | Mean % Relative Cytotoxic Effect (LDH) ([1]; lipid 1000 μM (Table 4)): 32% | cytotoxicity at 1 h, 1000 μM (in vitro; [11]): 43% | cytotoxicity at 1 h, 1000 μM (in vitro; [12]): 13% | cytotoxicity at 1 h (in vitro; % Cytotoxicity, lipid / PYY 10 mg/mL): 23% | permeation of insulin (in words) [2]: enhance the permeation of insulin across an epithelial cell monolayer | permeation of insulin ([2]; lipid 1000 μM (Example 6)): more than 3% | % Insulin Permeation ([2]; lipid 1000 μM in Buffer I): 4% | % Insulin Permeation ([2]; lipid 1000 μM in Buffer II): 8% | % Insulin Permeation ([2]; lipid 1000 μM in PBS): 3%

CCCCCCCCCCCCCCCC(=O)OC[C@H](COP(=O)([O-])OCC[N+](C)(C)C)OC(=O)CCCC=O [POVPC, 1-Palmitoyl-2-(5′-oxo-Valeroyl)-sn-Glycero-3-Phosphocholine]
MTT levels (cell viability) [3]: MTT levels comparable to that of the PBS negative control | effect on cell viability (MTT assay) [3]: did not reduce cell viability below that of the control Special Sauce | % Relative Cytotoxic Effect (LDH) [1, 6]: 19% | % Relative Cytotoxic Effect (LDH) [1, 7]: 11% | % Relative Cytotoxic Effect (LDH) [1, 8]: 13% | % Relative Cytotoxic Effect (LDH) [1, 9]: 13% | % Relative Cytotoxic Effect (LDH) [1, 10]: 12% | Cytotoxic Effect (LDH) 1 hr. Post-treatments ([1]; lipid 62.5 μM, percent of Triton-X100 LDH levels): 2% | Cytotoxic Effect (LDH) 1 hr. Post-treatments ([1]; lipid 125 μM, percent of Triton-X100 LDH levels): 2% | Cytotoxic Effect (LDH) 1 hr. Post-treatments ([1]; lipid 250 μM, percent of Triton-X100 LDH levels): 5% | Cytotoxic Effect (LDH) 1 hr. Post-treatments ([1]; lipid 500 μM, percent of Triton-X100 LDH levels): 11% | Mean % Relative Cytotoxic Effect (LDH) ([1]; lipid 1000 μM (Table 4)): 9% | LDH levels for each incubation time period ([1]; lipid 1000 μM, 15, 30 and 60 minute incubation): below 10% | Cytotoxic Effect (LDH) 1 hr. Post-treatments ([1]; lipid 1000 μM, percent of Triton-X100 LDH levels): 21% | cytotoxicity at 1 h, 1000 μM (in vitro; [11]): 15% | cytotoxicity at 1 h, 1000 μM (in vitro; [12]): 15%

CC(C)C[C@H](NC(=O)[C@H](C)NC(=O)[C@H](CCCCN)NC(=O)[C@H](CC(C)C)NC(=O)[C@H](C)NC(=O)[C@H](CC(C)C)NC(=O)[C@H](CCCCN)NC(=O)[C@H](CC(C)C)NC(=O)[C@H](C)NC(=O)[C@H](CC(C)C)NC(=O)[C@@H](N)CCCCN)C(=O)N[C@@H](CCCCN)C(=O)N[C@@H](C)C(=O)N[C@@H](C)C(=O)N[C@@H](CC(C)C)C(=O)N[C@@H](CCCCN)C(=O)N[C@@H](CC(C)C)C(=O)N[C@@H](C)C(N)=O [PN159, reference compound]
viability at 25 µM [4]: 89% | cytotoxicity at 1 hour, 25 μM (in vitro): 33% | % PYY Permeation ([5]; PN159 25 μM / PYY 13.67 mg/mL (High)): 3.71%

C=CCC(=O)O[C@H](COCCCCCCCCCCCCCCCC)COP(=O)([O-])OCC[N+](C)(C)C [C16-04:1 PC]
effect on cell viability (MTT assay) [3]: did not reduce cell viability below that of Special Sauce | Mean % Relative Cytotoxic Effect (LDH) ([1]; human, 1 h, 500 μM): 18% | Mean % Relative Cytotoxic Effect (LDH) ([1]; human, 1 h, 1000 μM): 27%

CCCCCCCCCCCCCCCC(=O)OC[C@H](COP(=O)([O-])OCC[N+](C)(C)C)OC(=O)CCCC(=O)O [PGPC, 1-Palmitoyl-2-Glutaroyl-sn-Glycero-3-Phosphocholine]
MTT levels (cell viability) [3]: MTT levels comparable to that of the PBS negative control | % Cell Viability [3, 13]: 113% | LDH levels ([1]; human, 1 h): below 30% | Cytotoxic Effect (LDH) 1 hr. Post-treatments ([1]; human, 1 h, 62.5 μM): 2% | Cytotoxic Effect (LDH) 1 hr. Post-treatments ([1]; human, 1 h, 125 μM): 2% | Cytotoxic Effect (LDH) 1 hr. Post-treatments ([1]; human, 1 h, 250 μM): 4% | Cytotoxic Effect (LDH) 1 hr. Post-treatments ([1]; human, 1 h, 500 μM): 13% | Cytotoxic Effect (LDH) 1 hr. Post-treatments ([1]; human, 1 h, 1000 μM): 21% | cytotoxicity at 1 h, 500 μM (in vitro; human, % Cytotoxicity): 2% | % PYY Permeation [5, 13]: 0.13%

CCCCCCCCCCCCCCCCCCOC[C@H](COP(=O)([O-])OCC[N+](C)(C)C)OC(C)=O [C18-02:0 PC(C18 PAF), 1-O-Octadecyl-2-Acetoyl-sn-Glycero-3-Phosphocholine]
effect on cell viability (MTT assay) [3]: did not reduce cell viability below that of Special Sauce | Mean % Relative Cytotoxic Effect (LDH) ([1]; human, 1 h, 500 μM): 8% | % Cytotoxicity ([1]; human, 1 h, 1000 μM): 17% | Mean % Relative Cytotoxic Effect (LDH) ([1]; human, 1 h, 1000 μM): 20% | cytotoxicity at 1 h, 1000 μM (in vitro; human, % Cytotoxicity): 33%
